Source: ChEMBL document CHEMBL1671626, “In vitro profiling of ceftaroline against a collection of recent bacterial clinical isolates from across the United States” (2008)

How the values were obtained:
Assay type in all cases: functional
Acinetobacter [1] = assay: Antibacterial activity against imipenem-susceptible Acinetobacter assessed as susceptible isolates by CLSI M7-A7 broth microdilution method
Escherichia coli [2] = assay: Antibacterial activity against ceftazidime-nonsusceptible Escherichia coli assessed as susceptible isolates by CLSI M7-A7 broth microdilution method
Staphylococcus aureus [3] = assay: Antibacterial activity against methicillin-resistant Staphylococcus aureus assessed as resistant isolates by CLSI M7-A7 broth microdilution method
Proteus mirabilis = assay: Antibacterial activity against ceftazidime-susceptible Proteus mirabilis assessed as susceptible isolates by CLSI M7-A7 broth microdilution method
Citrobacter freundii [4] = assay: Antibacterial activity against ceftazidime-susceptible Citrobacter freundii assessed as susceptible isolates by CLSI M7-A7 broth microdilution method
Citrobacter freundii [5] = assay: Antibacterial activity against ceftazidime-susceptible Citrobacter freundii by CLSI M7-A7 broth microdilution method
Streptococcus agalactiae [6] = assay: Antibacterial activity against erythromycin-nonsusceptible Streptococcus agalactiae by CLSI M7-A7 broth microdilution method
Staphylococcus aureus [7] = assay: Antibacterial activity against coagulase-negative and oxacillin-susceptible Staphylococcus aureus assessed as resistant isolates by CLSI M7-A7 broth microdilution method
Streptococcus pneumoniae [8] = assay: Antibacterial activity against penicillin-resistant Streptococcus pneumoniae assessed as resistant isolates by CLSI M7-A7 broth microdilution method
Streptococcus viridans [9] = assay: Antibacterial activity against penicillin-susceptible Streptococcus viridans assessed as resistant isolates by CLSI M7-A7 broth microdilution method
Escherichia coli [10] = assay: Antibacterial activity against ceftazidime-nonsusceptible Escherichia coli assessed as resistant isolates by CLSI M7-A7 broth microdilution method
Enterobacter cloacae [11] = assay: Antibacterial activity against ceftazidime-susceptible Enterobacter cloacae assessed as susceptible isolates by CLSI M7-A7 broth microdilution method
Enterobacteriaceae [12] = assay: Antibacterial activity against ceftazidime-susceptible Enterobacteriaceae assessed as resistant isolates by CLSI M7-A7 broth microdilution method
Citrobacter freundii [13] = assay: Antibacterial activity against ceftazidime-nonsusceptible Citrobacter freundii assessed as resistant isolates by CLSI M7-A7 broth microdilution method
Moraxella catarrhalis = assay: Antibacterial activity against beta lactamase-positive Moraxella catarrhalis by CLSI M7-A7 broth microdilution method
Pasteurella multocida [14] = assay: Antibacterial activity against Pasteurella multocida by CLSI M7-A7 broth microdilution method
Klebsiella pneumoniae [15] = assay: Antibacterial activity against ceftazidime-nonsusceptible Klebsiella pneumoniae assessed as susceptible isolates by CLSI M7-A7 broth microdilution method
Streptococcus viridans [16] = assay: Antibacterial activity against penicillin-nonsusceptible Streptococcus viridans by CLSI M7-A7 broth microdilution method
Escherichia coli [17] = assay: Antibacterial activity against ceftazidime-susceptible Escherichia coli by CLSI M7-A7 broth microdilution method
Streptococcus agalactiae [18] = assay: Antibacterial activity against erythromycin-nonsusceptible Streptococcus agalactiae assessed as susceptible isolates by CLSI M7-A7 broth microdilution method
Providencia sp. [19] = assay: Antibacterial activity against ceftazidime-susceptible Providencia sp. assessed as susceptible isolates by CLSI M7-A7 broth microdilution method
Citrobacter freundii [20] = assay: Antibacterial activity against ceftazidime-nonsusceptible Citrobacter freundii by CLSI M7-A7 broth microdilution method
Acinetobacter [21] = assay: Antibacterial activity against imipenem-susceptible Acinetobacter by CLSI M7-A7 broth microdilution method
Morganella morganii = assay: Antibacterial activity against ceftazidime-susceptible Morganella morganii assessed as susceptible isolates by CLSI M7-A7 broth microdilution method
Klebsiella pneumoniae [22] = assay: Antibacterial activity against ceftazidime-nonsusceptible Klebsiella pneumoniae assessed as resistant isolates by CLSI M7-A7 broth microdilution method
Streptococcus pneumoniae [23] = assay: Antibacterial activity against penicillin-resistant Streptococcus pneumoniae assessed as susceptible isolates by CLSI M7-A7 broth microdilution method
Pasteurella multocida [24] = assay: Antibacterial activity against Pasteurella multocida assessed as susceptible isolates by CLSI M7-A7 broth microdilution method
Escherichia coli [25] = assay: Antibacterial activity against ceftazidime-nonsusceptible Escherichia coli by CLSI M7-A7 broth microdilution method
Streptococcus viridans [26] = assay: Antibacterial activity against penicillin-susceptible Streptococcus viridans by CLSI M7-A7 broth microdilution method
Staphylococcus aureus [27] = assay: Antibacterial activity against coagulase-negative and oxacillin-susceptible Staphylococcus aureus by CLSI M7-A7 broth microdilution method
Haemophilus influenzae = assay: Antibacterial activity against beta lactamase-negative Haemophilus influenzae by CLSI M7-A7 broth microdilution method
Streptococcus viridans [28] = assay: Antibacterial activity against penicillin-susceptible Streptococcus viridans assessed as susceptible isolates by CLSI M7-A7 broth microdilution method
Enterobacter cloacae [29] = assay: Antibacterial activity against ceftazidime-susceptible Enterobacter cloacae by CLSI M7-A7 broth microdilution method
Streptococcus pyogenes [30] = assay: Antibacterial activity against erythromycin-nonsusceptible Streptococcus pyogenes assessed as susceptible isolates by CLSI M7-A7 broth microdilution method
Streptococcus agalactiae [31] = assay: Antibacterial activity against erythromycin-susceptible Streptococcus agalactiae assessed as susceptible isolates by CLSI M7-A7 broth microdilution method
Enterobacter cloacae [32] = assay: Antibacterial activity against ceftazidime-susceptible Enterobacter cloacae assessed as resistant isolates by CLSI M7-A7 broth microdilution method
Enterobacter cloacae [33] = assay: Antibacterial activity against ceftazidime-nonsusceptible Enterobacter cloacae assessed as resistant isolates by CLSI M7-A7 broth microdilution method
Streptococcus pyogenes [34] = assay: Antibacterial activity against erythromycin-susceptible Streptococcus pyogenes by CLSI M7-A7 broth microdilution method
Staphylococcus aureus [35] = assay: Antibacterial activity against coagulase-negative and oxacillin-resistant Staphylococcus aureus by CLSI M7-A7 broth microdilution method
Providencia sp. [36] = assay: Antibacterial activity against ceftazidime-susceptible Providencia sp. assessed as resistant isolates by CLSI M7-A7 broth microdilution method
Acinetobacter [37] = assay: Antibacterial activity against multidrug-resistant Acinetobacter assessed as susceptible isolates by CLSI M7-A7 broth microdilution method
Streptococcus pyogenes [38] = assay: Antibacterial activity against erythromycin-susceptible Streptococcus pyogenes assessed as susceptible isolates by CLSI M7-A7 broth microdilution method
Staphylococcus aureus [39] = assay: Antibacterial activity against coagulase-negative and oxacillin-resistant Staphylococcus aureus assessed as susceptible isolates by CLSI M7-A7 broth microdilution method
Enterobacteriaceae [40] = assay: Antibacterial activity against ceftazidime-nonsusceptible Enterobacteriaceae by CLSI M7-A7 broth microdilution method
Streptococcus viridans [41] = assay: Antibacterial activity against penicillin-nonsusceptible Streptococcus viridans assessed as susceptible isolates by CLSI M7-A7 broth microdilution method

How did the Activity (Acinetobacter [1]) turn out when `C[C@H]1COc2c(N3CCN(C)CC3)c(F)cc3c(=O)c(C(=O)O)cn1c23.C[C@H]1COc2c(N3CCN(C)CC3)c(F)cc3c(=O)c(C(=O)O)cn1c23.O` [LEVOFLOXACIN] was run?
The Activity was 51.1%.

And the Activity (Escherichia coli [2])?
The Activity was 14.3%.

What about the Activity (Staphylococcus aureus [3]) of the same molecule?
Its Activity is 73.2%.

What about the Activity (Proteus mirabilis) of the same molecule?
The Activity was 75.9%.

What about the Activity (Citrobacter freundii [4]) of the same molecule?
The Activity was 98%.

What about the MIC (Citrobacter freundii [5]) of the same molecule?
Its MIC is ≤ 0.03 µg/mL.

What about the MIC50 (Citrobacter freundii [5]) of the same molecule?
Its MIC50 is ≤ 0.03 µg/mL.

What about the MIC90 (Citrobacter freundii [5]) of the same molecule?
Its MIC90 is 1 µg/mL.

What about the MIC50 (Streptococcus agalactiae [6]) of the same molecule?
Its MIC50 is 1 µg/mL.

And the MIC90 (Streptococcus agalactiae [6])?
Its MIC90 is 1 µg/mL.

What about the Activity (Staphylococcus aureus [7]) of the same molecule?
The Activity was 17.9%.

And the Activity (Streptococcus pneumoniae [8])?
Its Activity is 0.7%.

What about the Activity (Streptococcus viridans [9]) of the same molecule?
Its Activity is 0%.

What about the Activity (Escherichia coli [10]) of the same molecule?
Its Activity is 85.7%.

And the Activity (Enterobacter cloacae [11])?
Its Activity is 94%.

What about the Activity (Enterobacteriaceae [12]) of the same molecule?
Its Activity is 9.4%.

And the Activity (Citrobacter freundii [13])?
Its Activity is 24.2%.

And the MIC (Moraxella catarrhalis)?
Its MIC is ≤ 0.03 µg/mL.

What about the MIC50 (Moraxella catarrhalis) of the same molecule?
The MIC50 was ≤ 0.03 µg/mL.

What about the MIC90 (Moraxella catarrhalis) of the same molecule?
Its MIC90 is ≤ 0.03 µg/mL.

And the MIC50 (Pasteurella multocida [14])?
Its MIC50 is ≤ 0.015 µg/mL.

What about the MIC90 (Pasteurella multocida [14]) of the same molecule?
Its MIC90 is 0.03 µg/mL.

And the Activity (Klebsiella pneumoniae [15])?
Its Activity is 37.9%.

And the MIC50 (Streptococcus viridans [16])?
The MIC50 was 1 µg/mL.

What about the MIC90 (Streptococcus viridans [16]) of the same molecule?
The MIC90 was 2 µg/mL.

And the MIC50 (Escherichia coli [17])?
Its MIC50 is ≤ 0.03 µg/mL.

And the MIC90 (Escherichia coli [17])?
Its MIC90 is 16 µg/mL.

And the Activity (Streptococcus agalactiae [18])?
The Activity was 97.6%.

What about the Activity (Providencia sp. [19]) of the same molecule?
The Activity was 66.7%.

What about the MIC50 (Citrobacter freundii [20]) of the same molecule?
Its MIC50 is 0.25 µg/mL.

And the MIC90 (Citrobacter freundii [20])?
Its MIC90 is 16 µg/mL.

What about the MIC50 (Acinetobacter [21]) of the same molecule?
The MIC50 was 0.5 µg/mL.

And the MIC90 (Acinetobacter [21])?
Its MIC90 is > 16 µg/mL.

And the Activity (Morganella morganii)?
Its Activity is 76.5%.

What about the Activity (Klebsiella pneumoniae [22]) of the same molecule?
Its Activity is 54.5%.

And the Activity (Streptococcus pneumoniae [23])?
Its Activity is 99.3%.

What about the Activity (Pasteurella multocida [24]) of the same molecule?
The Activity was 95.5%.

What about the MIC50 (Escherichia coli [25]) of the same molecule?
The MIC50 was > 16 µg/mL.

And the MIC90 (Escherichia coli [25])?
Its MIC90 is > 16 µg/mL.

What about the MIC50 (Streptococcus viridans [26]) of the same molecule?
Its MIC50 is 1 µg/mL.

What about the MIC90 (Streptococcus viridans [26]) of the same molecule?
Its MIC90 is 1 µg/mL.

What about the MIC50 (Staphylococcus aureus [27]) of the same molecule?
The MIC50 was 0.12 µg/mL.

And the MIC90 (Staphylococcus aureus [27])?
The MIC90 was 8 µg/mL.

And the MIC50 (Haemophilus influenzae)?
The MIC50 was 0.015 µg/mL.

What about the MIC90 (Haemophilus influenzae) of the same molecule?
The MIC90 was 0.03 µg/mL.

What about the Activity (Streptococcus viridans [28]) of the same molecule?
Its Activity is 100%.

What about the MIC (Enterobacter cloacae [29]) of the same molecule?
The MIC was ≤ 0.03 µg/mL.

What about the MIC50 (Enterobacter cloacae [29]) of the same molecule?
Its MIC50 is ≤ 0.03 µg/mL.

And the MIC90 (Enterobacter cloacae [29])?
Its MIC90 is 0.5 µg/mL.

And the Activity (Streptococcus pyogenes [30])?
The Activity was 100%.

And the Activity (Streptococcus agalactiae [31])?
The Activity was 100%.

What about the Activity (Enterobacter cloacae [32]) of the same molecule?
Its Activity is 2%.

And the Activity (Enterobacter cloacae [33])?
Its Activity is 25.7%.

What about the MIC50 (Streptococcus pyogenes [34]) of the same molecule?
Its MIC50 is 0.5 µg/mL.

And the MIC90 (Streptococcus pyogenes [34])?
Its MIC90 is 1 µg/mL.

What about the MIC50 (Staphylococcus aureus [35]) of the same molecule?
Its MIC50 is 8 µg/mL.

What about the MIC90 (Staphylococcus aureus [35]) of the same molecule?
The MIC90 was > 16 µg/mL.

What about the Activity (Providencia sp. [36]) of the same molecule?
The Activity was 25.9%.

And the Activity (Acinetobacter [37])?
Its Activity is 6.3%.

And the Activity (Streptococcus pyogenes [38])?
Its Activity is 100%.

What about the Activity (Staphylococcus aureus [39]) of the same molecule?
The Activity was 21.7%.

And the MIC50 (Enterobacteriaceae [40])?
The MIC50 was 8 µg/mL.

What about the MIC90 (Enterobacteriaceae [40]) of the same molecule?
The MIC90 was > 16 µg/mL.

And the Activity (Streptococcus viridans [41])?
The Activity was 92.9%.
